These are literature values, as cited in EP4233849A1, “PHARMACEUTICAL COMPOSITION COMPRISING POMALIDOMIDE” (KRKA, d.d., Novo mesto, priority 2022, dated 2023).

The structures appear in SMILES notation. Read-outs that look alike come from different tables or passages of the source.

The conditions of data set [1]: accelerated and room temperature conditions; anhydrous lactose, microcrystalline cellulose, anhydrous dibasic calcium phosphate, croscarmellose sodium, magnesium stearate.
The conditions of data set [2]: according to BCS classification.

As for `Nc1cccc2c1C(=O)N(C1CCC(=O)NC1=O)C2=O` (racemic) [Pomalidomide, (RS) 4-Amino-2-(2,6-dioxopiperidin-3-yl)isoindole-1,3-dione], the “stability in the presence of particular excipients” value in data set [1] was “instability problems”. Moreover, the solubility result in data set [2] is listed as “low solubility”; the solubility entry (in absolute ethanol, ethyl acetate, heptane, methanol, 2-propanol and toluene) is “very slightly soluble”; the solubility result (in acetone, acetonitrile, methylene chloride, methyl ethyl ketone and tetrahydrofuran) is reported as “slightly soluble”; the solubility entry (in water) was “practically insoluble”.
